According to patent publication US10669275B2 (priority 2015, dated 2020):

How the values were obtained:
[1] = twelve weeks at 40° C. and 75% relative humidity
[2] = at about pH 8; cited from earlier work
[3] = 3 tons pressure 1 min; strong grinding dry or with a drop of water, ethanol or isopropanol; 100° C. for 30 minutes; 1 week 100% relative humidity at room temperature
Description: The analysis of was performed on ARL (SCINTAG) powder X-Ray diffractometer model X'TRA equipped with a solid stage detector.
Scanning parameters: range: 2-40 degrees two-theta; scan mode: continuous scan; step size: 0.05°, and a rate of 3 deg/min.

[4] = wettability by contact angle measurement; format: physicochemical; details: water drops (2 μL) on pellet pressed at 2 t*cm^−2
Description: The wettability of the below compounds was determined by contact angle measurement. For this purpose, the substances were pressed (2 t*cm^−2) to a pellet. On each pellet were placed three water drops (2 μL) on three individual measurement points and the contact angle was measured with the apparatus OCA40 (DataPhysics Instruments) on two sides of the drop.

SMILES: C=CC(=O)N1CCC[C@@H](n2nc(-c3ccc(Oc4ccccc4)cc3)c3c(N)ncnc32)C1 [Ibrutinib Form E, 1-[(3R)-3[4-Amino-3-(4-phenoxyphenyl)-1H-pyrazolo[3,4-d]pyrimidin-1-yl]piperidin-1-yl]prop-2-en-lone]
- solid form after storage (XRPD, FIG. 15) [1]: transformed into ibrutinib Form A

SMILES: C=CC(=O)N1CCC[C@@H](n2nc(-c3ccc(Oc4ccccc4)cc3)c3c(N)ncnc32)C1 [Ibrutinib free base form A, 1-[(3R)-3[4-Amino-3-(4-phenoxyphenyl)-1H-pyrazolo[3,4-d]pyrimidin-1-yl]piperidin-1-yl]prop-2-en-lone]
- observed aqueous solubility [2]: about 0.013 mg/ml

SMILES: C=CC(=O)N1CCCC(n2nc(-c3ccc(Oc4ccccc4)cc3)c3c(N)ncnc32)C1.C=CC(=O)N1CCCC(n2nc(-c3ccc(Oc4ccccc4)cc3)c3c(N)ncnc32)C1.O=C(O)C=CC(=O)O (stereo not shown) [ibrutinib:fumaric acid]
- XRPD pattern after stress-tests [3]: No change was observed in the XRPD pattern

SMILES: C=CC(=O)N1CCC[C@@H](n2nc(-c3ccc(Oc4ccccc4)cc3)c3c(N)ncnc32)C1.C=CC(=O)N1CCC[C@@H](n2nc(-c3ccc(Oc4ccccc4)cc3)c3c(N)ncnc32)C1.O=C(O)CCC(=O)O [ibrutinib:succinic acid]
- contact angle θ [4]: incapable of measurement*
